From patent US4018895A, “Aryloxyphenylpropylamines in treating depression” (Eli Lilly and Company, priority 1975, dated 1977)
Read-outs that look alike come from different tables or passages of the source.

Assays:
[1] = system: norepinephrine uptake by synaptosomes from rat brain; assay: In vitro blockade of norepinephrine uptake by synaptosomes from rat brain; type: biochemical; settings: norepinephrine 0.48 μM
Source text: (§1) This blockade is shown both in vitro with radioactive labelled compounds to determine the amount of monoamine uptake by synaptosomes from rat brain, and in vivo by a variety of methods. Among the physiologically active monoamines whose uptake is blocked by the compounds of this invention are included serotonin, norepinephrine and dopamine (3,4-dihydroxyphenylethylamine). […] Tables 1 and 2 which follow set forth the results of some of the in vitro determinations of the blockage of monoamine uptake by the compounds of this invention. In the tables, column 1 gives the R substituent on the 3-phenylpropylamine and columns 2-4, the concentration in micrograms per ml. that blocks the uptake of a particular amine by 50 percent for the amines--norephinephrine, serotonin, and dopamine. At the head of each column is given the concentration of the particular monoamine used in the experiment.

[2] = system: dopamine uptake by synaptosomes from rat brain; assay: In vitro blockade of dopamine uptake by synaptosomes from rat brain; type: biochemical; settings: dopamine 0.2 μM
Source text: as §1

[3] = system: serotonin uptake by synaptosomes from rat brain; assay: In vitro blockade of serotonin uptake by synaptosomes from rat brain; type: biochemical; settings: serotonin 0.1 μM
Source text: as §1

[4] = system: hypothermia induced by the injection of apomorphine; assay: Apomorphine hypothermia antagonism test; type: in vivo, mice; settings: Pre-30 min., mice; for inhibition in vivo at 1 mg/kg / inhibition in vivo at 3 mg/kg / inhibition in vivo at 10 mg/kg: Mus musculus, read-out: Percent Antagonism Apomorphine
Protocol: The apomorphine hypothermia antagonism test is carried out as follows: mice are injected with a dose of apomorphine known to reduce body temperature approximately 4° C. […] The degree of antagonism is expressed as a percent reduction (as compared with controls) of the temperature decrease produced by the injection of the apomorphine. The reserpine hypothermia reversal test is carried out as follows: groups of mice are injected with reserpine and 16.5 hours later are injected intraperitoneally with graded doses of the drug, a different dose level being given to each group of mice. Temperatures are measured at 1 hour after injection of the drug under test and again the effectiveness of the drug is expressed as a percentage decrease in the hypothermia induced by the injection of reserpine as compared with the control group. In the tablets which follow, Table 4 gives the results in the apomorphine antagonism and reserpine reversal hypothermia tests for the secondary amines of this invention. In the table, the first column gives the substituent attached to the oxygen atom at the 3 position of the propylamine chain; columns 2 to 4 the percent antagonism against apomorphine hypothermia at dose levels of 0.3, 1 and 3 mg./kg. and columns 5-7 the percent reversal of reserpine hypothermia at the same dose levels.

[5] = system: hypothermia induced by the injection of reserpine; assay: Reserpine hypothermia reversal test; type: in vivo, mice; settings: Mus musculus, ip, 1 h, Post-60 min., mice, read-out: Percent Antagonism Reserpine; for inhibition in vivo at 1 mg/kg: 1 mg./kg. intraperitoneally; for inhibition in vivo at 3 mg/kg: 3 mg./kg. intraperitoneally; for inhibition in vivo at 0.3 mg/kg: .3 mg./kg. intraperitoneally; for inhibition in vivo at 10 mg/kg: 10 mg./kg. intraperitoneally
Protocol: The apomorphine hypothermia antagonism test is carried out as follows: mice are injected with a dose of apomorphine known to reduce body temperature approximately 4° C. The compound under test is injected 1/2 hour before the injection of the apomorphine and the temperatures measured 1/2 hour after injection. The degree of antagonism is expressed as a percent reduction (as compared with controls) of the temperature decrease produced by the injection of the apomorphine. The reserpine hypothermia reversal test is carried out as follows: groups of mice are injected with reserpine and 16.5 hours later are injected intraperitoneally with graded doses of the drug, a different dose level being given to each group of mice. Temperatures are measured at 1 hour after injection of the drug under test and again the effectiveness of the drug is expressed as a percentage decrease in the hypothermia induced by the injection of reserpine as compared with the control group. In the tablets which follow, Table 4 gives the results in the apomorphine antagonism and reserpine reversal hypothermia tests for the secondary amines of this invention. In the table, the first column gives the substituent attached to the oxygen atom at the 3 position of the propylamine chain; columns 2 to 4 the percent antagonism against apomorphine hypothermia at dose levels of 0.3, 1 and 3 mg./kg. and columns 5-7 the percent reversal of reserpine hypothermia at the same dose levels.

[6] = Table 5, dimethylamino compounds, 1 mg./kg.
[7] = Table 5, dimethylamino compounds, 3 mg./kg.
[8] = Table 5, dimethylamino compounds, 10 mg./kg.
[9] = Table 5, dimethylamino compounds

Compound	Concentration that blocks 50% of amine uptake, Norepinephrine ([1]; Table 1, scaffold drawing 3)	Concentration that blocks 50% of amine uptake, Dopamine ([2]; Table 1, scaffold drawing 3)	Concentration that blocks 50% of amine uptake, Serotonin ([3]; Table 1, scaffold drawing 3)	inhibition in vivo at 1 mg/kg [4, 6]	inhibition in vivo at 3 mg/kg [4, 7]	inhibition in vivo at 10 mg/kg [4, 8]	other results
Cc1cccc(OC(CCN(C)C)c2ccccc2)c1.O=C(O)C(=O)O (stereo not drawn) [m-tolyl, N,N-dimethyl 3-phenyl-3-(m-tolyloxy)propylamine oxalate]	12 mcq./ml.	> 0 mcq./ml.	.7 mcq./ml.				
CN(C)CCC(Oc1cccc(C(F)(F)F)c1)c1ccccc1.O=C(O)C(=O)O (stereo not drawn) [m-trifluoromethylphenyl, N,N-dimethyl 3-phenyl-3-(m-trifluoromethylphenoxy) propylamine oxalate]	8 mcq./ml.	> 100 mcq./ml.	.18 mcq./ml.				
CN(C)CCC(Oc1ccccc1F)c1ccccc1 (stereo not drawn) [o-fluorophenyl]				-10%	11%	31%	
Cc1ccccc1OC(CCN(C)C)c1ccccc1 (stereo not drawn) [o-tolyl]					11%	94%	
CN(C)CCC(Oc1ccc(F)cc1F)c1ccccc1 (stereo not drawn) [2,4-difluorophenyl]	.2 mcq./ml.	10 mcq./ml.	.3 mcq./ml.				Concentration that blocks 50% of amine uptake, Norepinephrine ([1]; Table 2, scaffold drawing 4): > 100 µg/mL; inhibition in vivo at 1 mg/kg ([5]; Table 4, secondary amines): 17%; inhibition in vivo at 3 mg/kg ([5]; Table 4, secondary amines): 27%; inhibition in vivo at 0.3 mg/kg ([5]; Table 4, secondary amines): 13%; inhibition in vivo at 1 mg/kg [5, 9]: 11%; inhibition in vivo at 3 mg/kg [5, 9]: 12%; inhibition in vivo at 10 mg/kg [5, 9]: 30%; inhibition in vivo at 0.3 mg/kg [5, 9]: 23%; Concentration that blocks 50% of amine uptake, Dopamine ([2]; Table 2, scaffold drawing 4): > 100 µg/mL; Percent Antagonism Apomorphine ([4]; Table 4, secondary amines, 1 mg./kg.): 53%; Percent Antagonism Apomorphine ([4]; Table 4, secondary amines, 3 mg./kg.): 64%; Percent Antagonism Apomorphine ([4]; Table 4, secondary amines, .3 mg./kg.): 20%; Percent Antagonism Apomorphine [4, 6]: 26%; Percent Antagonism Apomorphine [4, 7]: 55%; Percent Antagonism Apomorphine [4, 8]: 98%; Concentration that blocks 50% of amine uptake, Serotonin ([3]; Table 2, scaffold drawing 4): 4.5 µg/mL
CN(C)CCC(Oc1cccc2ccccc12)c1ccccc1.O=C(O)/C=C\C(=O)O (stereo not drawn) [α-naphthyl, N,N-dimethyl 3-(α-naphthyloxy)-3-phenylpropylamine maleate]	3 mcq./ml.	2.5 mcq./ml.	.03 mcq./ml.	-17%	-10%	-7%	inhibition in vivo at 1 mg/kg [5, 9]: 15%; inhibition in vivo at 3 mg/kg [5, 9]: 4%; inhibition in vivo at 10 mg/kg [5, 9]: 15%
CN(C)CCC(Oc1cccc(Cl)c1)c1ccccc1 (stereo not drawn) [m-chlorophenyl]				0%	13%	66%	
COc1cccc(OC(CCN(C)C)c2ccccc2)c1.O=C(O)C(=O)O (stereo not drawn) [m-methoxyphenyl, N,N-dimethyl 3-phenyl-3-(m-methoxyphenoxy)propylamine oxalate]	.2 mcq./ml.	.5 mcq./ml.	.08 mcq./ml.				
COc1ccccc1OC(CCN(C)C)c1ccccc1 (stereo not drawn) [o-anisyl]				11%	30%	61%	
